Reference: publication PMC9873234, “Syntheses and Structure–Activity Relationships of N-Phenethyl-Quinazolin-4-yl-Amines as Potent Inhibitors of Cytochrome bd Oxidase in Mycobacterium tuberculosis” (Applied sciences (Basel, Switzerland), 2021)
Like-named read-outs stand apart in the source and are kept apart here.

Key:
Assay in all cases: microbe, parasite or virus in culture
M. bovis BCG [1] = test system: T1, M. bovis BCG; parameters: species or system M. tuberculosis H37Rv or N0145; details: Mycobacterium tuberculosis variant bovis BCG, 15 h, read-out: BCG / −Q203
T1 construct: BCG

M. tuberculosis H37Rv [2] = test system: T2, M. tuberculosis H37Rv; parameters: ATP depletion in replicating mycobacteria without Q203, BacTiter-Glo luminescence; details: Mycobacterium tuberculosis, 15 h, read-out: Replicating ATP IC50 (µM) H37Rv / −Q203
T2 construct: H37Rv

M. tuberculosis N0145 [3] = test system: T3, M. tuberculosis N0145; parameters: species or system M. bovis BCG, M. tuberculosis H37Rv or N0145; details: Mycobacterium tuberculosis, N0145, 15 h; read-out: N0145 / –Q203
T3 construct: N0145 (clinical isolate)

M. bovis BCG [4] = test system: T1, M. bovis BCG; parameters: species or system M. tuberculosis H37Rv or N0145; details: Mycobacterium tuberculosis variant bovis BCG, 15 h, read-out: BCG / −Q203; remark: listed apart in the source
M. tuberculosis H37Rv [5] = test system: T2, M. tuberculosis H37Rv; parameters: species or system M. bovis BCG, M. tuberculosis H37Rv or N0145; details: Mycobacterium tuberculosis, 15 h, read-out: Replicating ATP IC50 (µM) H37Rv / −Q203
M. tuberculosis N0145 [6] = test system: T3, M. tuberculosis N0145; parameters: species or system M. bovis BCG, M. tuberculosis H37Rv or N0145
[7] = Mycobacterium tuberculosis, N0145, 15 h; read-out: N0145 / –Q203

Row | Compound | IC50 (M. bovis BCG [1]) [µM] | IC50 (M. tuberculosis H37Rv [2]) [µM] | IC50 (M. tuberculosis N0145 [3]) [µM] | IC50 (M. bovis BCG [4]) [µM] | IC50 (M. tuberculosis H37Rv [5]) [µM] | IC50 (M. tuberculosis N0145 [6]; [7]) [µM] | IC50 (M. tuberculosis N0145 [6]; Mycobacterium tuberculosis, N0145, 15 h, read-out: N0145 / –Q203) [µM]
1 | FC(F)(F)Oc1ccc(CCNc2ncnc3cc(C(F)(F)F)ccc23)cc1 [22a] | > 25 | > 25 | > 25 | – | – | – | –
2 | Cc1nc(NCCc2ccc(OC(F)(F)F)cc2)c2ccc(F)cc2n1 [26a] | > 25 | 23.6 ± 7.81 | > 25 | – | – | – | –
3 | COc1ccc2ncnc(NCCc3ccc(OC(F)(F)F)cc3)c2c1 [18a] | > 25 | > 25 | > 25 | – | – | – | –
4 | FC(F)(F)c1ccc(Oc2ccc(Nc3ncnc4ccccc34)cc2)cc1 [compound 2] | – | – | – | > 25 | > 25 | > 25 | –
5 | Cc1nc(NCCc2ccc(OC(F)(F)F)cc2)c2ccccc2n1 [24a] | 12.2 ± 0.737 | 7.5 ± 1.02 | 8.2 ± 0.654 | – | – | – | –
6 | FC(F)(F)Oc1ccc(CCNc2ncnc3ccccc23)cc1 [7a, Quinazolin-4-yl{2-[4-(trifluoromethoxy)phenyl]ethyl}amine] | – | – | – | > 25 | > 25 | > 25 | –
7 | FC(F)(F)c1ccccc1CCNc1ncnc2ccccc12 [15a, Quinazolin-4-yl{2-[2-(trifluromethyl)phenyl]ethyl}amine] | – | – | – | > 25 | > 25 | > 25 | –
8 | Cc1ccc2ncnc(NCCc3ccc(OC(F)(F)F)cc3)c2c1 [17a] | > 25 | > 25 | > 25 | – | – | – | –
9 | Fc1ccc2c(NCCc3ccc(OC(F)(F)F)cc3)ncnc2c1 [19a, (7-Fluoroquinazolin-4-yl){2-[4-(trifluormethoxy)phenyl]ethyl}amine] | > 25 | > 25 | > 25 | – | – | – | –
10 | COc1ccc2c(NCCc3ccc(OC(F)(F)F)cc3)ncnc2c1 [23a] | > 25 | > 25 | > 25 | – | – | – | –
11 | FC(F)(F)Oc1ccc(CCNc2nc(C3CC3)nc3ccccc23)cc1 [25a] | 8.5 ± 1.53 | 7.6 ± 1.03 | 7.3 ± 1.05 | – | – | – | –
12 | FC(F)(F)Oc1cccc(CCNc2ncnc3ccccc23)c1 [13a] | – | – | – | > 25 | > 25 | > 25 | –
13 | CC(C)=CCC/C(C)=C/CC/C(C)=C/Cc1c(C)[nH]c2ccccc2c1=O [aurachin D] | – | – | – | > 25 | 5.5 ± 1.11 | > 25 | –
14 | FC(F)(F)Oc1ccc(CCNc2ncnc3cc(Br)ccc23)cc1 [21a] | > 25 | > 25 | > 25 | – | – | – | –
15 | Fc1ccc2ncnc(NCCc3ccc(OC(F)(F)F)cc3)c2c1 [16a] | > 25 | > 25 | > 25 | – | – | – | –
16 | Clc1ccc(CCNc2ncnc3ccccc23)cc1 [8a] | – | – | – | > 25 | > 25 | > 25 | –
17 | FC(F)(F)Oc1ccc(CCNc2ncnc3cc(Cl)ccc23)cc1 [20a] | > 25 | > 25 | > 25 | – | – | – | –
18 | COc1nc2ccc(Br)cc2cc1[C@@H](c1ccccc1)[C@@](O)(CCN(C)C)c1cccc2ccccc12 [BDQ] | – | – | – | 0.17 ± 0.019 | 0.06 ± 0.019 | 0.05 ± 0.003 | –
19 | c1ccc(CCNc2ncnc3ccccc23)cc1 [compound 3] | – | – | – | > 25 | > 25 | – | > 25
20 | FS(F)(F)(F)(F)c1ccc(CCNc2ncnc3ccccc23)cc1 [9a] | – | – | – | > 25 | > 25 | > 25 | –
21 | Cc1ccc(CCNc2ncnc3ccccc23)cc1 [10a] | – | – | – | > 25 | > 25 | > 25 | –
22 | FC(F)(F)c1ccc(CCNc2ncnc3ccccc23)cc1 [6a, Quinazolin-4-yl{2-[4-(trifluoromethyl)phenyl]ethyl}amine] | – | – | – | > 25 | > 25 | > 25 | –
23 | COc1ccc(CCNc2ncnc3ccccc23)cc1 [11a] | – | – | – | > 25 | > 25 | > 25 | –
24 | CC(C)(C)c1ccc(CCNc2ncnc3ccccc23)cc1 [12a, {2-[4-(tert-Butyl)phenyl]ethyl}quinazolin-4-ylamine] | – | – | – | > 25 | > 25 | > 25 | –
25 | CCOc1cccc(CCNc2ncnc3ccccc23)c1 [14a] | – | – | – | > 25 | > 25 | > 25 | –
